Results taken from article PMC6454709, “Application of WST-8 based colorimetric NAD(P)H detection for quantitative dehydrogenase assays” (BMC Biochemistry, 2019).
Like-named read-outs stand apart in the source and are kept apart here.

System: T1, Bacillus GDH
T1 construct: commercial enzyme from GDH activity colorimetric assay kit (Biovision)
Assay: WST-8/1-mPMS formazan assay, […] nm, Michaelis-Menten fit
Type: biochemical
Details: 20 mM Tris-HCl pH 9.0, 37 °C

| Km (1 mM NAD+, read-out: KM (mM) / Glucose) | Km (250 mM glucose, read-out: KM (mM) / NAD^+) | Structure (SMILES) |
| --- | --- | --- |
| 17.1 ± 2 mM | – | OC[C@H]1OC(O)[C@H](O)[C@@H](O)[C@@H]1O (stereo partly drawn) [D-(+)-glucose] |
| – | 0.271 ± 0.027 mM | NC(=O)c1ccc[n+]([C@@H]2O[C@H](COP(=O)(O)OP(=O)(O)OC[C@H]3O[C@@H](n4cnc5c(N)ncnc54)[C@H](O)[C@@H]3O)[C@@H](O)[C@H]2O)c1 [NAD^+] |
